Starred links: 1 amine or outer side, 2 acyl side, 3 side chain; linkers in the order of their positions; H or OH if unused. Non-standard residues stand in square brackets, D forms with d. Residues, ends and D or L forms follow the SMILES beside them. *: point of attachment. Biotinyl(3aR,4R,6aS) = O=C1N[C@@H]2[C@@H](CS[C@@H]2CCCCC(=O)*)N1; N(2-Aminoethyl)Gly = O=C(CN(CCN[*:3])[*:1])[*:2]; Chlorambucil = O=C(CCCc1ccc(N(CCCl)CCCl)cc1)*; Gly(N-propargyl) = C#CCNCC(=O)O; NPrGly = CCCNCC(=O)O
How the values were obtained:
MCF-10A cells = assay: Caspase 3/7 activity (apoptosis) in MCF-10A normal breast epithelial cells; type: cell-based; conditions: healthy breast epithelial MCF-10A cells
Method: (§1) A—Effects of compounds 1 and 2 (50 nM) on mature miR-96 and pri-miR-96 levels. B—Effects of compounds 1 and 2 (50 nM) on FOXO1 protein expression. C— Profiling of miRNAs predicted to target FOXO1 mRNA by TargetScan in compound 2-treated MDA-MB-231 cells. D—Volcano plot profiling the effect of compound 2 on all miRNAs that are expressed in MDA-MB-231 cells (blue circles are miRNAs predicted to target FOXO1 mRNA by TargetScan). E—Effects of compounds 1, 2, and 3 on Caspase 3/7 activity, indicative of apoptosis, in MDA-MB-231 TNBC cells. F—Effects of compounds 1, 2, and 3 on Caspase 3/7 activity, indicative of apoptosis, in MCF-10A normal breast epithelial cells.
(§2) We next studied the ability of 1 and 2 to trigger apoptosis, i.e., reverse phenotype, in MDA-MB-231 by measuring Caspase activity. […] Compound 3 had no effect on Caspase activity, as expected. […] Thus, the covalent compounds show relative selectivity for cancerous over healthy breast cells.

pri-miR-96 [1] = conditions: in cells, cited from earlier work
pri-miR-96 [2] = conditions: in vitro, cited from earlier work; for pulldown of pri-miR-96 adducts with streptavidin beads: radioactively labeled pri-miR-96 RNA
[3] = test system: pri-miR-96 (Drosha processing); assay: RT-qPCR of mature miR-96 and pri-miR-96 levels in MDA-MB-231 TNBC cells; type: cell-based; conditions: MDA-MB-231 cells, 50 nM
Method: as §1

FOXO1 protein = FOXO1 protein expression in MDA-MB-231 cells; type: cell-based; conditions: 50 nM
Method: as §1
(§3) Since miR-96 suppresses apoptosis in cancer cells by repressing the translation of Forkhead box 01 (FOXO1) transcription factor,^15 the effects of 1, 2, and 3 on FOXO1 protein levels were measured in MDA-MB-231 cells. […] To validate that the increase in FOXO1 levels was mediated by inhibition of miR-96, we studied the effects of 1 and 2 on all 15 miRNAs predicted to target the FOXO1 3′ untranslated region (UTR) by TargetScan (FIG. 3C). […] To further probe 2's selectivity for pri-miR-96, we performed an unbiased profiling experiment on 373 miRNAs expressed in MDA-MB-231 TNBC cells (based on Qiagen miRNA Human miRbase profiler HC).

MDA-MB-231 TNBC cells = assay: Caspase 3/7 activity (apoptosis) in MDA-MB-231 TNBC cells; type: cell-based; conditions: MDA-MB-231 cells
Method: as §1, §2

[4] = test system: miRNAs predicted to target FOXO1 mRNA; assay: Profiling of 15 miRNAs predicted by TargetScan to target FOXO1 3' UTR; type: cell-based; conditions: MDA-MB-231 cells
Method: as §1, §3

pri-miR-96 [5] = assay: Chem-CLIP-Map-Seq binding site mapping within pri-miR-96 in MDA-MB-231 TNBC cells; type: cell-based; conditions: MDA-MB-231 cells, 1000 nM
From the text: A—Scheme of amplification approach to identify small molecule binding site in pri-miR-96. B— In cellulis mapping of the binding site for compound 2 within pri-miR-96 in MDA-MB-231 TNBC cells. Percentages indicate the number of sequences observed terminating at the respective nucleotide adjacent to the percentage.
Given the enrichment of pri-miR-96 in the pulled down fraction and 2's pro-apoptotic properties, we mapped 2's binding site within pri-miR-96 in cells. We defined 2's cellular binding site within pri-miR-96. […] After reverse transcription, ssDNA adaptors were ligated to the cDNA, followed by which was cloned into NEB's pminiT 2.0 vector and sequenced. Mirroring the predicted and validated (via nuclease mapping^14) binding site, 2's binding site was localized to nucleotides that are proximal to pri-miR-96's Drosha site (FIG. 4B). In particular, the most occupied binding site observed is a C residue four nucleotides upstream of the UU internal loop bound by 1 (54%; highlighted in red in FIG. 4). Two other reactions sites were observed: (i) a G residue in the GG internal loop that binds 1 (14%); and (ii) a U residue 13 nucleotides upstream of the UU internal loop that is part of the Drosha processing site (24%). To support our cellular mapping experiments, we modeled 2 bound to pri-miR-96 (FIG. 4B). Indeed, the distance between 2's cross-linking module and the most reacted nucleotides match precisely.

[6] = test system: 373 miRNAs expressed in MDA-MB-231 TNBC cells; assay: Unbiased profiling of 373 miRNAs expressed in MDA-MB-231 TNBC cells; type: cell-based; conditions: Qiagen miRNA Human miRbase profiler HC
Method: as §1, §3

| SMILES | Caspase activity indicative of apoptosis (MCF-10A cells) | competition of pri-miR-96 pulldown (cellular C-Chem-CLIP) (pri-miR-96 [1]; increasing concentration of 1) | competition of pri-miR-96 pulldown by 2 (C-Chem-CLIP) (pri-miR-96 [2]; constant 2 (1000 nM), increasing amounts of 1) | increase in pri-miR-96 abundance [3] | mature miR-96 levels [3] | FOXO1 protein expression (FOXO1 protein) | Caspase activity indicative of apoptosis (MDA-MB-231 TNBC cells) | effect on all 15 miRNAs predicted to target the FOXO1 3' UTR [4] | enrichment of pri-miRNA-96 in the pulled down fraction (pri-miR-96 [1]; compared to sample prior to incubation with streptavidin beads, RT-qPCR) [fold] | sequences terminating at reaction site: C residue four nucleotides upstream of the UU internal loop (pri-miR-96 [5]) [%] | sequences terminating at reaction site: G residue in the GG internal loop (pri-miR-96 [5]) [%] | sequences terminating at reaction site: U residue 13 nucleotides upstream of the UU internal loop (Drosha processing site) (pri-miR-96 [5]) [%] | selectivity profiling on 373 miRNAs (volcano plot) [6] | pulldown of pri-miR-96 adducts with streptavidin beads (pri-miR-96 [2]) |
| --- | --- | --- | --- | --- | --- | --- | --- | --- | --- | --- | --- | --- | --- | --- |
| CCCN(CC(=O)N(CCC)CC(=O)N(CC(N)=O)Cc1cn(CCCNC(=O)CCCOc2c(C(C)(C)C)cc(-c3nc4cc(N5CCN(C)CC5)ccc4[nH]3)cc2C(C)(C)C)nn1)C(=O)CCCOc1cccc(-c2nc3ccc(-c4nc5cc(N6CCN(C)CC6)ccc5[nH]4)cc3[nH]2)c1 [compound 1, Targaprimir-96] | neither 1 nor 2 had any effect | decreased as a function of the concentration of 1 | 1-dependent decrease in the amount of RNA pulled down by 2 | ca. 1.5 fold | reduced | enhanced the expression of FOXO1 protein | increased Caspase activity | Only miR-96 was inhibited significantly |  |  |  |  |  |  |
| CCCN(CC(=O)N(CC(=O)N(CCNC(=O)CCCC[C@H]1SC[C@H]2NC(=O)N[C@H]21)CC(N)=O)Cc1cn(CCCNC(=O)CCCOc2c(C(C)(C)C)cc(-c3nc4cc(N5CCN(C)CC5)ccc4[nH]3)cc2C(C)(C)C)nn1)C(=O)CN(CCNC(=O)CCCc1ccc(N(CCCl)CCCl)cc1)C(=O)CCCOc1cccc(-c2nc3ccc(-c4nc5cc(N6CCN(C)CC6)ccc5[nH]4)cc3[nH]2)c1 [compound 2] | neither 1 nor 2 had any effect |  |  | ca. 1.5 fold | reduced to a similar extent as the parent compound 1 | enhanced the expression of FOXO1 protein | increased Caspase activity | Only miR-96 was inhibited significantly | 5 | 54 | 14 | 24 | miR-96 was the most affected | Specific engagement |
| C#CCN(CC(=O)N(CCNC(=O)CCCC[C@H]1SC[C@H]2NC(=O)N[C@H]21)CC(N)=O)C(=O)CN(CCC)C(=O)CN(CCNC(=O)CCCc1ccc(N(CCCl)CCCl)cc1)C(C)=O [compound 3] (Ac-[N(2-Aminoethyl)Gly](Chlorambucil)[NPrGly][Gly(N-propargyl)][N(2-Aminoethyl)Gly](Biotinyl(3aR,4R,6aS))-NH2) |  |  |  |  | No effect |  | no effect |  |  |  |  |  |  | no pulldown |
